According to patent publication US10448639B2, “Fungicidal pyrazoles” (FMC CORPORATION, priority 2009, dated 2019):
Read-outs that look alike come from different tables or passages of the source.

Assays:
Alternaria solani = experiment: Test C: tomato early blight, preventive spray on tomato seedlings, visual disease rating; settings: for pest or weed control at 200 µg/mL: Alternaria solani, in Solanum lycopersicum, 168 h
[1] = test system: Puccinia recondita f. sp. tritici; experiment: Test H: wheat leaf rust, curative spray on inoculated wheat seedlings, visual disease rating; settings: for pest or weed control at 200 µg/mL: 144 h
[2] = test system: Puccinia recondita f. sp. tritici; experiment: Test I: wheat leaf rust, preventive spray on wheat seedlings, visual disease rating; settings: for pest or weed control at 200 µg/mL: 192 h
Septoria tritici = experiment: Test G: wheat leaf blotch, preventive spray on wheat seedlings, visual disease rating; settings: for pest or weed control at 200 µg/mL: Zymoseptoria tritici, in Triticum aestivum, 504 h
Botrytis cinerea = experiment: Test B: tomato Botrytis, preventive spray on tomato seedlings, visual disease rating; settings: for pest or weed control at 200 µg/mL: Botrytis cinerea, in Solanum lycopersicum, 120 h
[3] = test system: Erysiphe graminis f sp. tritici; experiment: Test J: wheat powdery mildew, preventive spray on wheat seedlings, visual disease rating; settings: for pest or weed control at 200 µg/mL: Blumeria graminis, in Triticum aestivum, 192 h
Septoria nodorum = experiment: Test F: Septoria glume blotch, preventive spray on wheat seedlings, visual disease rating; settings: for pest or weed control at 200 µg/mL: Parastagonospora nodorum, in Triticum aestivum, 192 h
[4] = tomato early blight, preventive spray, 100 = 100% disease control, 0 = no control
[5] = wheat leaf rust, curative spray, 100 = 100% disease control, 0 = no control
[6] = wheat leaf rust, preventive spray, 100 = 100% disease control, 0 = no control
[7] = wheat leaf blotch, preventive spray, 100 = 100% disease control, 0 = no control
[8] = tomato Botrytis, preventive spray, 100 = 100% disease control, 0 = no control
[9] = wheat powdery mildew, preventive spray, 100 = 100% disease control, 0 = no control
[10] = Septoria glume blotch on wheat, preventive spray, 100 = 100% disease control, 0 = no control
[11] = tomato early blight, 100 = 100% disease control, 0 = no control relative to controls
[12] = wheat leaf rust, curative, 100 = 100% disease control, 0 = no control relative to controls
[13] = wheat leaf rust, preventive, 100 = 100% disease control, 0 = no control relative to controls
[14] = wheat leaf blotch, 100 = 100% disease control, 0 = no control relative to controls
[15] = tomato Botrytis, 100 = 100% disease control, 0 = no control relative to controls
[16] = wheat powdery mildew, 100 = 100% disease control, 0 = no control relative to controls
[17] = Septoria glume blotch, 100 = 100% disease control, 0 = no control relative to controls
[18] = read-out: Test C rating (% disease control)
[19] = read-out: Test H rating (% disease control)
[20] = read-out: Test I rating (% disease control)
[21] = read-out: Test G rating (% disease control)
[22] = read-out: Test B rating (% disease control)
[23] = read-out: Test J rating (% disease control)
[24] = read-out: Test F rating (% disease control)

COc1cc(F)c(Nc2c(-c3ccc(C)cc3)c(C)nn2C)c(F)c1 [compound 80]
Test C rating (% disease control) (Alternaria solani; [4]): 0% | Test H rating (% disease control) [1, 5]: 18% | Test I rating (% disease control) [2, 6]: 86% | Test G rating (% disease control) (Septoria tritici; [7]): 99% | Test B rating (% disease control) (Botrytis cinerea; [8]): 100% | Test J rating (% disease control) [3, 9]: 89% | Test F rating (% disease control) (Septoria nodorum; [10]): 0%

Cc1nn(C)c(Nc2cc(F)ccc2F)c1-c1ccc(F)cc1Cl [compound 173]
Test C rating (% disease control) (Alternaria solani; [11]): 86% | Test H rating (% disease control) [1, 12]: 0% | Test I rating (% disease control) [2, 13]: 83% | Test G rating (% disease control) (Septoria tritici; [14]): 98% | Test B rating (% disease control) (Botrytis cinerea; [15]): 100% | Test J rating (% disease control) [3, 16]: 100% | Test F rating (% disease control) (Septoria nodorum; [17]): 0%

COc1ccc(-c2c(C)nn(C)c2Nc2c(F)cccc2F)c(Cl)c1 [compound 161]
Test C rating (% disease control) (Alternaria solani; [11]): 100% | Test H rating (% disease control) [1, 12]: 95% | Test I rating (% disease control) [2, 13]: 100% | Test G rating (% disease control) (Septoria tritici; [14]): 100% | Test B rating (% disease control) (Botrytis cinerea; [15]): 98% | Test J rating (% disease control) [3, 16]: 98% | Test F rating (% disease control) (Septoria nodorum; [17]): 0%

Cc1nn(C)c(Nc2ncc(Cl)cc2Cl)c1-c1ccccc1Cl [compound 320]
Test C disease control rating (Alternaria solani; tomato early blight, 100 = 100% disease control, 0 = no disease control relative to controls): 67% | Test H disease control rating ([1]; wheat leaf rust, sprayed after inoculation, 100 = 100% disease control, 0 = no disease control relative to controls): 0% | Test I disease control rating ([2]; wheat leaf rust, sprayed the day before inoculation, 100 = 100% disease control, 0 = no disease control relative to controls): 99% | Test G disease control rating (Septoria tritici; wheat leaf blotch, sprayed the day before inoculation, 100 = 100% disease control, 0 = no disease control relative to controls): 100% | Test B disease control rating (Botrytis cinerea; tomato Botrytis, 100 = 100% disease control, 0 = no disease control relative to controls): 99% | Test J disease control rating ([3]; wheat powdery mildew, sprayed the day before inoculation, 100 = 100% disease control, 0 = no disease control relative to controls): 98% | Test F disease control rating (Septoria nodorum; Septoria glume blotch on wheat, 100 = 100% disease control, 0 = no disease control relative to controls): 0%

COc1cc(F)c(-c2c(C)nn(C)c2C(O)c2ccc(F)cc2F)c(F)c1 (stereo not shown) [compound 208]
Test C rating (% disease control) (Alternaria solani; [11]): 100% | Test H rating (% disease control) [1, 12]: 0% | Test I rating (% disease control) [2, 13]: 99% | Test G rating (% disease control) (Septoria tritici; [14]): 100% | Test B rating (% disease control) (Botrytis cinerea; [15]): 100% | Test J rating (% disease control) [3, 16]: 99% | Test F rating (% disease control) (Septoria nodorum; [17]): 99%

Cc1nn(C)c(Nc2ccc(F)cc2F)c1-c1cccc(F)c1F [compound 202]
Test C rating (% disease control) (Alternaria solani; [11]): 0% | Test H rating (% disease control) [1, 12]: 0% | Test I rating (% disease control) [2, 13]: 28% | Test G rating (% disease control) (Septoria tritici; [14]): 99% | Test B rating (% disease control) (Botrytis cinerea; [15]): 99% | Test J rating (% disease control) [3, 16]: 99% | Test F rating (% disease control) (Septoria nodorum; [17]): 0%

Cc1nn(C)c(Nc2c(F)cc(F)cc2F)c1-c1ccc(Cl)cc1Cl [compound 75]
Test C rating (% disease control) (Alternaria solani; [4]): 98% | Test H rating (% disease control) [1, 5]: 95% | Test I rating (% disease control) [2, 6]: 99% | Test G rating (% disease control) (Septoria tritici; [7]): 99% | Test B rating (% disease control) (Botrytis cinerea; [8]): 100% | Test J rating (% disease control) [3, 9]: 97% | Test F rating (% disease control) (Septoria nodorum; [10]): 98%

Cc1nn(C)c(Oc2ccc(C#N)cc2Cl)c1-c1ccc(F)cc1Cl [Compound 139, 3-chloro-4-[[4-(2-chloro-4-fluorophenyl)-1,3-dimethyl-1H-pyrazol-5-yl]oxy]benzonitrile]
pest or weed control at 200 µg/mL (Alternaria solani; [18]): 86% | pest or weed control at 200 µg/mL [1, 19]: 69% | pest or weed control at 200 µg/mL [2, 20]: 99% | pest or weed control at 200 µg/mL (Septoria tritici; [21]): 100% | pest or weed control at 200 µg/mL (Botrytis cinerea; [22]): 100% | pest or weed control at 200 µg/mL [3, 23]: 100% | pest or weed control at 200 µg/mL (Septoria nodorum; [24]): 100%

COc1cc(F)c(-c2c(C)nn(C)c2Oc2ccc(Br)c(C#N)c2)c(F)c1 [compound 258]
Test C rating (% disease control) (Alternaria solani; [11]): 9% | Test H rating (% disease control) [1, 12]: 0% | Test I rating (% disease control) [2, 13]: 68% | Test G rating (% disease control) (Septoria tritici; [14]): 89% | Test B rating (% disease control) (Botrytis cinerea; [15]): 41% | Test J rating (% disease control) [3, 16]: 90% | Test F rating (% disease control) (Septoria nodorum; [17]): 0%

COc1cc(F)c(Nc2c(-c3ccc(F)cc3F)c(C)nn2C)c(F)c1 [compound 42]
Test C rating (% disease control) (Alternaria solani; [4]): 0% | Test H rating (% disease control) [1, 5]: 0% | Test I rating (% disease control) [2, 6]: 94% | Test G rating (% disease control) (Septoria tritici; [7]): 93% | Test B rating (% disease control) (Botrytis cinerea; [8]): 100% | Test J rating (% disease control) [3, 9]: 82% | Test F rating (% disease control) (Septoria nodorum; [10]): 0%

Cc1nn(C)c(Nc2c(F)cc(Br)cc2F)c1-c1ccc(F)cc1F [Compound 364, N-(4-bromo-2,6-difluorophenyl)-4-(2,4-difluorophenyl)-1,3-dimethyl-1H-pyrazol-5-amine]
pest or weed control at 200 µg/mL (Alternaria solani; read-out: Test C disease control rating): 97% | pest or weed control at 200 µg/mL ([1]; read-out: Test H disease control rating): 0% | pest or weed control at 200 µg/mL ([2]; read-out: Test I disease control rating): 99% | pest or weed control at 200 µg/mL (Septoria tritici; read-out: Test G disease control rating): 100% | pest or weed control at 200 µg/mL (Botrytis cinerea; read-out: Test B disease control rating): 99% | pest or weed control at 200 µg/mL ([3]; read-out: Test J disease control rating): 100% | pest or weed control at 200 µg/mL (Septoria nodorum; read-out: Test F disease control rating): 88%

Cc1nn(C)c(Nc2cccc(Cl)c2Cl)c1-c1ccc(F)cc1F [compound 231]
Test C rating (% disease control) (Alternaria solani; [11]): 34% | Test H rating (% disease control) [1, 12]: 0% | Test I rating (% disease control) [2, 13]: 86% | Test G rating (% disease control) (Septoria tritici; [14]): 100% | Test B rating (% disease control) (Botrytis cinerea; [15]): 98% | Test J rating (% disease control) [3, 16]: 100% | Test F rating (% disease control) (Septoria nodorum; [17]): 0%

Cc1nn(C)c(Nc2ccc(C#N)cc2F)c1-c1ccc(F)cc1F [compound 246]
Test C rating (% disease control) (Alternaria solani; [11]): 51% | Test H rating (% disease control) [1, 12]: 0% | Test I rating (% disease control) [2, 13]: 80% | Test G rating (% disease control) (Septoria tritici; [14]): 100% | Test B rating (% disease control) (Botrytis cinerea; [15]): 99% | Test J rating (% disease control) [3, 16]: 100% | Test F rating (% disease control) (Septoria nodorum; [17]): 0%

Cc1nn(C)c(Nc2cc(F)c(F)c(F)c2)c1-c1ccc(F)cc1Cl [compound 132]
Test C rating (% disease control) (Alternaria solani; [4]): 0% | Test H rating (% disease control) [1, 5]: 0% | Test I rating (% disease control) [2, 6]: 94% | Test G rating (% disease control) (Septoria tritici; [7]): 100% | Test B rating (% disease control) (Botrytis cinerea; [8]): 99% | Test J rating (% disease control) [3, 9]: 92% | Test F rating (% disease control) (Septoria nodorum; [10]): 0%

Cc1nn(C)c(Nc2ccc(F)cc2Cl)c1-c1c(F)cccc1Cl [Compound 193, N-(2-chloro-4-fluorophenyl)-4-(2-chloro-6-fluorophenyl)-1,3-dimethyl-1H-pyrazol-5-amine]
pest or weed control at 200 µg/mL (Alternaria solani; [18]): 100% | pest or weed control at 200 µg/mL [1, 19]: 32% | pest or weed control at 200 µg/mL [2, 20]: 99% | pest or weed control at 200 µg/mL (Septoria tritici; [21]): 100% | pest or weed control at 200 µg/mL (Botrytis cinerea; [22]): 99% | pest or weed control at 200 µg/mL [3, 23]: 100% | pest or weed control at 200 µg/mL (Septoria nodorum; [24]): 0%

COc1cc(F)c(-c2c(C)nn(C)c2Oc2c(F)cc(C#N)cc2F)c(F)c1 [compound 140]
Test C rating (% disease control) (Alternaria solani; [4]): 94% | Test H rating (% disease control) [1, 5]: 0% | Test I rating (% disease control) [2, 6]: 96% | Test G rating (% disease control) (Septoria tritici; [7]): 99% | Test B rating (% disease control) (Botrytis cinerea; [8]): 99% | Test J rating (% disease control) [3, 9]: 97% | Test F rating (% disease control) (Septoria nodorum; [10]): 87%
